# Measurements: the supplement of paper PMC11208160
# Test: recombinant barcode read abundance after kanamycin selection (control-corrected) (log10(CPM+1)); higher = more efficient recombination; sequences stand for … in AGTGCAGAGAAAATCGGCCAGTTTTCTCTGCCTGCAGTCCGCATGCCGT…ATTTATGCAGCGGACTGCCTTTCTCCCAAAGTGATAAACCGGACAGTATCATGGACCGGTTTTCCCGGTAATCCGTATTTGCAAGGTTGGTTTCACT; site = the 11-nt target
# Outline: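 The screen was pooled in E. coli and paired targets with IS621 bridge RNA target-binding loops. Recombination efficiency is taken from barcode counts per million at recombinant junctions, averaged and adjusted against the control. Values, in the form log10(CPM+1), come from duplicate plating on chloramphenicol/ampicillin LB agar or on chloramphenicol/ampicillin/kanamycin with 0.1 mM IPTG.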
row,Sequence,recombinant barcode read abundance (log10)
1,"ATGCTTTCTTGGGTTCTAACCTGTTGCCTGG [ATGCTTTCTAG_LTGcore_CT_RTGcore_CC] (site ATGCTTTCTAG) (LTG core: CT, RTG core: CC)",0.57
2,"AGGAGGTACTGGGTTCTAACCTGTTGCCTAG [AGGAGGTCTAG_LTGcore_AC_RTGcore_CT] (site AGGAGGTCTAG) (LTG core: AC, RTG core: CT)",0.105
3,"AGTCTTAACTGGGTTCTAACCTGTTGCCAGT [AGTCTTACTTG_LTGcore_AC_RTGcore_AC] (site AGTCTTACTTG) (LTG core: AC, RTG core: AC)",0.129
4,"GGGCGTGAATGGGTTCTAACCTGTTGCCTTT [GGGCGTGCTAG_LTGcore_AA_RTGcore_AA] (site GGGCGTGCTAG) (LTG core: AA, RTG core: AA)",0.148
5,"GAGGCCTACTGGGTTCTAACCTGTTGCCAAG [GAGGCCTCTTG_LTGcore_AC_RTGcore_CT] (site GAGGCCTCTTG) (LTG core: AC, RTG core: CT)",0.0351
6,"AAACATGGGTGGGTTCTAACCTGTTGCCTAG [AAACATGCTAG_LTGcore_GG_RTGcore_CT] (site AAACATGCTAG) (LTG core: GG, RTG core: CT)",0.427
7,"AGTCTTAAGTGGGTTCTAACCTGTTGCCACT [AGTCTTACTTG_LTGcore_AG_RTGcore_AG] (site AGTCTTACTTG) (LTG core: AG, RTG core: AG)",0.0305
8,"ATGTCCCCTTGGGTTCTAACCTGTTGCTCAT [ATGTCCCCTGA_LTGcore_CT_RTGcore_AT] (site ATGTCCCCTGA) (LTG core: CT, RTG core: AT)",0.0302
9,"AGGCCTCCTTGGGTTCTAACCTGTTGCCTGG [AGGCCTCCTAG_LTGcore_CT_RTGcore_CC] (site AGGCCTCCTAG) (LTG core: CT, RTG core: CC)",0.337
10,"AAACATGCCTGGGTTCTAACCTGTTGCCTAG [AAACATGCTAG_LTGcore_CC_RTGcore_CT] (site AAACATGCTAG) (LTG core: CC, RTG core: CT)",0.55
11,"GAGCCCACTTGGGTTCTAACCTGTTGCCTAG [GAGCCCACTAG_LTGcore_CT_RTGcore_CT] (site GAGCCCACTAG) (LTG core: CT, RTG core: CT)",1.45
12,"TGATACCCGTGGGTTCTAACCTGTTGCGTAG [TGATACCCTAC_LTGcore_CG_RTGcore_CT] (site TGATACCCTAC) (LTG core: CG, RTG core: CT)",0.907
13,"AGGCGGGGGTGGGTTCTAACCTGTTGCGGCC [AGGCGGGCTCC_LTGcore_GG_RTGcore_GG] (site AGGCGGGCTCC) (LTG core: GG, RTG core: GG)",0.0346
14,"CGAGCCCGGTGGGTTCTAACCTGTTGCTGAG [CGAGCCCCTCA_LTGcore_GG_RTGcore_CT] (site CGAGCCCCTCA) (LTG core: GG, RTG core: CT)",0.223
15,"TTATAAACTTGGGTTCTAACCTGTTGCCTTG [TTATAAACTAG_LTGcore_CT_RTGcore_CA] (site TTATAAACTAG) (LTG core: CT, RTG core: CA)",0.173
16,"AGGCCTCCCTGGGTTCTAACCTGTTGCCTAG [AGGCCTCCTAG_LTGcore_CC_RTGcore_CT] (site AGGCCTCCTAG) (LTG core: CC, RTG core: CT)",0.293
17,"GGGCGGACATGGGTTCTAACCTGTTGCGGTG [GGGCGGACTCC_LTGcore_CA_RTGcore_CA] (site GGGCGGACTCC) (LTG core: CA, RTG core: CA)",0.732
18,"TGTATTCTTTGGGTTCTAACCTGTTGCCTAG [TGTATTCCTAG_LTGcore_TT_RTGcore_CT] (site TGTATTCCTAG) (LTG core: TT, RTG core: CT)",0.242
19,"ATGTCCCCATGGGTTCTAACCTGTTGCTCTG [ATGTCCCCTGA_LTGcore_CA_RTGcore_CA] (site ATGTCCCCTGA) (LTG core: CA, RTG core: CA)",0.0134
20,"TGATACCATTGGGTTCTAACCTGTTGCGTAG [TGATACCCTAC_LTGcore_AT_RTGcore_CT] (site TGATACCCTAC) (LTG core: AT, RTG core: CT)",0.0337
21,"ATGTCCCCTTGGGTTCTAACCTGTTGCTCGT [ATGTCCCCTGA_LTGcore_CT_RTGcore_AC] (site ATGTCCCCTGA) (LTG core: CT, RTG core: AC)",0.161
22,"AAACAGTCTTGGGTTCTAACCTGTTGCCTAA [AAACAGTCTAG_LTGcore_CT_RTGcore_TT] (site AAACAGTCTAG) (LTG core: CT, RTG core: TT)",1.55
23,"ATGCTTTCTTGGGTTCTAACCTGTTGCCTCA [ATGCTTTCTAG_LTGcore_CT_RTGcore_TG] (site ATGCTTTCTAG) (LTG core: CT, RTG core: TG)",0.153

row,Sequence,recombinant barcode read abundance (log10)
1,"AGGCCTCTTTGGGTTCTAACCTGTTGCCTAA [AGGCCTCCTAG_LTGcore_TT_RTGcore_TT] (site AGGCCTCCTAG) (LTG core: TT, RTG core: TT)",0.196
2,"GAGGCCTTGTGGGTTCTAACCTGTTGCCAAG [GAGGCCTCTTG_LTGcore_TG_RTGcore_CT] (site GAGGCCTCTTG) (LTG core: TG, RTG core: CT)",0.0876
3,"AGGCGGTCCTGGGTTCTAACCTGTTGCTTAG [AGGCGGTCTAA_LTGcore_CC_RTGcore_CT] (site AGGCGGTCTAA) (LTG core: CC, RTG core: CT)",0.341
4,"CATATTACTTGGGTTCTAACCTGTTGCCTAT [CATATTACTAG_LTGcore_CT_RTGcore_AT] (site CATATTACTAG) (LTG core: CT, RTG core: AT)",0.0875
5,"TCTACCCCTTGGGTTCTAACCTGTTGCTGCA [TCTACCCCTCA_LTGcore_CT_RTGcore_TG] (site TCTACCCCTCA) (LTG core: CT, RTG core: TG)",0.217
6,"AGGCCTCGGTGGGTTCTAACCTGTTGCCTCC [AGGCCTCCTAG_LTGcore_GG_RTGcore_GG] (site AGGCCTCCTAG) (LTG core: GG, RTG core: GG)",0.0521
7,"GGGAGCCGGTGGGTTCTAACCTGTTGCTGAG [GGGAGCCCTCA_LTGcore_GG_RTGcore_CT] (site GGGAGCCCTCA) (LTG core: GG, RTG core: CT)",0.212
8,"GGGAGCCGCTGGGTTCTAACCTGTTGCTGAG [GGGAGCCCTCA_LTGcore_GC_RTGcore_CT] (site GGGAGCCCTCA) (LTG core: GC, RTG core: CT)",0.379
9,"GAGGCCTAATGGGTTCTAACCTGTTGCCATT [GAGGCCTCTTG_LTGcore_AA_RTGcore_AA] (site GAGGCCTCTTG) (LTG core: AA, RTG core: AA)",0.223
10,"AAACACATCTGGGTTCTAACCTGTTGCCTAG [AAACACACTAG_LTGcore_TC_RTGcore_CT] (site AAACACACTAG) (LTG core: TC, RTG core: CT)",0.222
11,"GAGCCCACGTGGGTTCTAACCTGTTGCCTCG [GAGCCCACTAG_LTGcore_CG_RTGcore_CG] (site GAGCCCACTAG) (LTG core: CG, RTG core: CG)",0.282
12,"AGTCTTACTTGGGTTCTAACCTGTTGCCATG [AGTCTTACTTG_LTGcore_CT_RTGcore_CA] (site AGTCTTACTTG) (LTG core: CT, RTG core: CA)",0.0163
13,"AGGCCTCTTTGGGTTCTAACCTGTTGCCTAG [AGGCCTCCTAG_LTGcore_TT_RTGcore_CT] (site AGGCCTCCTAG) (LTG core: TT, RTG core: CT)",0.103
14,"TGTATTCGATGGGTTCTAACCTGTTGCCTTC [TGTATTCCTAG_LTGcore_GA_RTGcore_GA] (site TGTATTCCTAG) (LTG core: GA, RTG core: GA)",0.138
15,"ATGCTTTTGTGGGTTCTAACCTGTTGCCTCA [ATGCTTTCTAG_LTGcore_TG_RTGcore_TG] (site ATGCTTTCTAG) (LTG core: TG, RTG core: TG)",0.313
16,"TGATACCTGTGGGTTCTAACCTGTTGCGTAG [TGATACCCTAC_LTGcore_TG_RTGcore_CT] (site TGATACCCTAC) (LTG core: TG, RTG core: CT)",0.064
17,"GAGCCCAATTGGGTTCTAACCTGTTGCCTAG [GAGCCCACTAG_LTGcore_AT_RTGcore_CT] (site GAGCCCACTAG) (LTG core: AT, RTG core: CT)",0.204
18,"CATATTACATGGGTTCTAACCTGTTGCCTTG [CATATTACTAG_LTGcore_CA_RTGcore_CA] (site CATATTACTAG) (LTG core: CA, RTG core: CA)",0.00594
19,"AAACATGCCTGGGTTCTAACCTGTTGCCTGG [AAACATGCTAG_LTGcore_CC_RTGcore_CC] (site AAACATGCTAG) (LTG core: CC, RTG core: CC)",0.107
20,"AGTCTTATCTGGGTTCTAACCTGTTGCCAAG [AGTCTTACTTG_LTGcore_TC_RTGcore_CT] (site AGTCTTACTTG) (LTG core: TC, RTG core: CT)",0.0237
21,"CGGTCCCAATGGGTTCTAACCTGTTGCCAAG [CGGTCCCCTTG_LTGcore_AA_RTGcore_CT] (site CGGTCCCCTTG) (LTG core: AA, RTG core: CT)",0.3
22,"ACGGGACACTGGGTTCTAACCTGTTGCAGGT [ACGGGACCTCT_LTGcore_AC_RTGcore_AC] (site ACGGGACCTCT) (LTG core: AC, RTG core: AC)",0.0869
